Laboratory results published in paper PMC6017000, “Distribution Assessments of Coumarins from Angelicae Pubescentis Radix in Rat Cerebrospinal Fluid and Brain by Liquid Chromatography Tandem Mass Spectrometry Analysis” (Molecules : A Journal of Synthetic Chemistry and Natural …, 2018).

Experiments:
[1] = Stability of QC samples in aCSF (freeze-thaw, room temperature); type: physicochemical; conditions: percentage remaining, n = 5; for Stability room temperature: room temperature 24 h; for Stability Freeze-thaw: three freeze-thaw cycles
[2] = Stability of QC samples in rat brain homogenate (freeze-thaw, room temperature); type: physicochemical; conditions: percentage remaining, n = 5; for Stability room temperature: room temperature 24 h; for Stability Freeze-thaw: three freeze-thaw cycles
[3] = Rat CSF distribution after oral administration of APRE (UPLC-MS/MS); conditions: for total amount percentage of CSF/plasma: (0.48 × AUC0→∞/CSF)/(16 × AUC0→∞/plasma), oral APRE; for total amount percentage of CSF/plasma / AUC(0-inf) / AUC(0-t) / Cmax / Tmax / half-life: rat; for AUC(0-inf) / AUC(0-t) / Cmax / Tmax / half-life: CSF, po, 4 g/kg; for MRM response in CSF: rat CSF after oral APRE
Protocol: Aliquots of 50 μL CSF samples with IS (10 μL, 200 ng/mL) were extracted with 600 μL ethyl acetate.
The UPLC-MS/MS system consisted of a Shimadzu Nexera UPLC instrument connected to a Shimadzu LCMS-8050 mass spectrometer via the electrospray ionization interface (Shimadzu Corp., Kyoto, Japan). Samples were separated on an ACQUITY UPLC BEH RP18 column (2.1 × 100 mm, 1.7 µm, Waters, Milford, MA, USA) equipped with a BEH RP18 guard column (2.1 × 5 mm, 1.7 µm, Waters, Milford, MA, USA). The column temperature was 30 °C, and the flow rate was 0.4 mL/min. The sample injection volume was 5 µL. The mobile phases consisted of 0.1% (v/v) formic acid in water (A) and ACN (B). […] The precursor ion, product ion, Q1, Q3, CE and DT were optimized.
(§1) The time schedule included 9 time-points, and six rats were sampled at each time-point. The rats were fasted overnight with free access to water before the experiment. APRE was suspended with the normal saline and orally administered to the rats at a single dose of 4 g/kg. The animals had free access to water during the experiment.
Rats were anesthetized by an intraperitoneal dose of chloral hydrate (350 mg/kg) at 0.25, 0.5, 1, 1.5, 2, 4, 6, 8, 12 h after oral administration of APRE. A dorsal midline cutaneous incision was made, and the muscle at the craniocervical junction was bluntly dissected to expose the atlanto-occipital membrane. The cisterna magna was punctured with a thin syringe needle, and a microinjector connected with the needle was used to collect the interior CSF carefully [27]. Clear CSF was transferred to a clean microtube and frozen at −80 °C until further use. Blood contaminated samples were excluded.
(§2) Results were expressed as the mean ± standard deviation (SD). The UPLC-MS/MS data were processed with Labsolutions 5.65 software (Shimadzu Corp., Kyoto, Japan). The pharmacokinetic parameters were calculated with the Drug and Statistics 2.0 software (Mathematical Pharmacology Professional Committee of China, Shanghai, China).

[4] = Rat brain distribution after oral administration of APRE (UPLC-MS/MS); conditions: for AUC0→t / AUC0→∞ / CLz/F / Vz/F: rat brain, oral APRE 4 g/kg, mean ± SD, n = 6; for Tmax / half-life / Kp / log BBexpt.: rat; for Tmax / half-life: brain; for Tmax / half-life / Kp: po, 4 g/kg; for Kp: brain/plasma; for log BBexpt.: log (AUC0→∞/brain/AUC0→∞/plasma), oral APRE
Protocol: Each weighed brain sample was homogenized with a 2-fold volume of normal saline solution. IS solution (10 μL, 200 ng/mL) was added to 300 μL of the homogenate. The mixture was then extracted with a 3-fold volume of ethyl acetate. The mixture was vortexed for 1 min and centrifuged at 16,000× g for 10 min. The supernatant was transferred out and dried under a gentle constant flow of nitrogen. The residue was then dissolved with 100 μL of MeOH and ultrasonically (power 250 W, frequency 40 KHz) extracted for 10 min. After centrifugation at 16,000× g for 10 min, the supernatant was drawn out into a clean vial, and 5 μL of each were injected into the UPLC–MS/MS system for analysis.
The UPLC-MS/MS system consisted of a Shimadzu Nexera UPLC instrument connected to a Shimadzu LCMS-8050 mass spectrometer via the electrospray ionization interface (Shimadzu Corp., Kyoto, Japan). Samples were separated on an ACQUITY UPLC BEH RP18 column (2.1 × 100 mm, 1.7 µm, Waters, Milford, MA, USA) equipped with a BEH RP18 guard column (2.1 × 5 mm, 1.7 µm, Waters, Milford, MA, USA). The column temperature was 30 °C, and the flow rate was 0.4 mL/min. The sample injection volume was 5 µL. The mobile phases consisted of 0.1% (v/v) formic acid in water (A) and ACN (B). The LC gradient elution program and mass working parameters were the same as our previous report [6]. […] The precursor ion, product ion, Q1, Q3, CE and DT were optimized.
as §1
Cardiac perfusion was carried out quickly with physiological saline after CSF collection at each time-point. The rat brains were separated, weighed and then stored at −80 °C until treatment.
as §2

[5] = design: method as in PMID 28654868; conditions: rat plasma, oral APRE; cited from earlier work

SMILES | Stability room temperature ([1]; aCSF QC 5 ng/mL) [%] | Stability Freeze-thaw ([1]; aCSF QC 5 ng/mL) [%] | Stability room temperature ([2]; rat brain QC 5 ng/mL) [%] | Stability Freeze-thaw ([2]; rat brain QC 5 ng/mL) [%] | AUC(0-inf) [3] [µg·h/mL] | AUC(0-t) [3] [µg·h/mL] | Cmax [3] [ng/mL] | Tmax [3] [h] | half-life [3] [h] | AUC0→t [4] | AUC0→∞ [4] | CLz/F [4] [g/h/kg] | Vz/F [4] [g/kg] | Tmax [4] [h] | half-life [4] [h] | Kp [4] | Stability room temperature ([2]; rat brain QC 80 ng/mL) [%] | Stability Freeze-thaw ([2]; rat brain QC 80 ng/mL) [%] | Stability room temperature ([2]; rat brain QC 160 ng/mL) [%] | Stability Freeze-thaw ([2]; rat brain QC 160 ng/mL) [%] | other results
CC(C)(O)[C@H]1Cc2cc3ccc(=O)oc3cc2O1 [Compound 12, nodakenetin] | 102.33±8.37 | 101.36±5.89 | 94.83±5.41 | 98.18±2.46 | 0.625 ± 0.249 | 0.331 ± 0.0432 | 43.5 ± 5.98 | 6.33 ± 0.82 | 6.69 ± 2.25 | 933.83 ± 66.51 µg·h/kg | 1560.07 ± 730.91 µg·h/kg | 0.779 ± 0.26 | 6.30 ± 2.22 | 5.33 ± 1.03 | 6.27 ± 3.19 | 0.01 | – | – | – | – | Stability room temperature ([1]; aCSF QC 120 ng/mL): 101.14±5.08%; Stability Freeze-thaw ([1]; aCSF QC 120 ng/mL): 92.78±5.37%; Stability room temperature ([1]; aCSF QC 240 ng/mL): 99.91±7.69%; Stability Freeze-thaw ([1]; aCSF QC 240 ng/mL): 95.63±4.23%; Stability room temperature ([2]; rat brain QC 200 ng/mL): 97.69±5.38%; Stability Freeze-thaw ([2]; rat brain QC 200 ng/mL): 101.08±9.25%; Stability room temperature ([2]; rat brain QC 400 ng/mL): 95.56±2.64%; total amount percentage of CSF/plasma [3]: greater than 1%
COc1c2ccoc2cc2oc(=O)ccc12 [Compound 3, bergapten] | 106.76±8.57 | 92.34±7.48 | 88.02±2.73 | 89.97±6.29 | 0.0413 ± 0.00577 | 0.0271 ± 0.00226 | 3.95 ± 0.24 | 1.46 ± 0.84 | 6.72 ± 1.95 | 418.20 ± 93.60 µg·h/kg | 449.85 ± 97.52 µg·h/kg | 3.22 ± 0.85 | 10.76 ± 4.73 | 1.21 ± 1.53 | 2.34 ± 1.04 | 0.08 | 86.01±3.16 | 85.30±8.42 | 86.84±6.63 | 90.70±9.46 | Stability room temperature ([1]; aCSF QC 40 ng/mL): 94.61±4.23%; Stability Freeze-thaw ([1]; aCSF QC 40 ng/mL): 93.24±6.30%; Stability room temperature ([1]; aCSF QC 80 ng/mL): 99.54±7.55%; Stability Freeze-thaw ([1]; aCSF QC 80 ng/mL): 97.23±5.17%
COc1ccc2ccc(=O)oc2c1CC=C(C)C [Compound 10, osthole] | 95.92±3.20 | 94.43±7.49 | 99.12±3.06 | 95.53±4.36 | 0.0305 ± 0.00153 | 0.0277 ± 0.00288 | 4.31 ± 1.49 | 2.83 ± 2.84 | 3.19 ± 1.16 | 1327.91 ± 341.99 µg·h/kg | 2105.63 ± 1100.15 µg·h/kg | 13.96 ± 7.04 | 60.18 ± 25.11 | 0.35 ± 0.14 | 5.36 ± 2.15 | 0.15 | 101.64±8.78 | 98.42±10.02 | 96.43±4.95 | 98.13±6.85 | Stability room temperature ([1]; aCSF QC 40 ng/mL): 94.93±5.05%; Stability Freeze-thaw ([1]; aCSF QC 40 ng/mL): 95.90±8.12%; Stability room temperature ([1]; aCSF QC 80 ng/mL): 93.50±6.38%; Stability Freeze-thaw ([1]; aCSF QC 80 ng/mL): 97.71±2.91%
COc1ccc2ccc(=O)oc2c1CC(O)C(C)(C)O (centres unmarked) [Compound 11, Meranzin hydrate] | 92.02±3.40 | 96.16±10.07 | 97.21±8.86 | 94.71±4.63 | 0.754 ± 0.142 | 0.676 ± 0.108 | 129 ± 20.2 | 2.17 ± 0.98 | 3.37 ± 0.75 | 1752.16 ± 249.82 µg·h/kg | 1948.10 ± 305.84 µg·h/kg | 0.86 ± 0.13 | 4.46 ± 1.60 | 1.29 ± 1.5 | 3.64 ± 1.4 | – | – | – | – | – | Stability room temperature ([1]; aCSF QC 120 ng/mL): 99.09±5.56%; Stability Freeze-thaw ([1]; aCSF QC 120 ng/mL): 95.58±7.24%; Stability room temperature ([1]; aCSF QC 240 ng/mL): 103.10±9.99%; Stability Freeze-thaw ([1]; aCSF QC 240 ng/mL): 94.40±4.03%; Stability room temperature ([2]; rat brain QC 200 ng/mL): 96.58±7.80%; Stability Freeze-thaw ([2]; rat brain QC 200 ng/mL): 97.28±10.13%; Stability room temperature ([2]; rat brain QC 400 ng/mL): 95.82±9.16%; Stability Freeze-thaw ([2]; rat brain QC 400 ng/mL): 104.50±7.46%; log BBexpt. [4]: −0.10
CC(C)(O)[C@@H]1Cc2c(ccc3ccc(=O)oc23)O1 [Compound 5, columbianetin] | 97.23±8.25 | 96.35±9.69 | 97.88±10.06 | 105.83±7.01 | 4.14 ± 0.602 | 3.37 ± 0.604 | 485 ± 91.4 | 5 ± 1.1 | 4.06 ± 2.42 | 13,438.17 ± 2016.06 µg/kg·h | 16,664.04 ± 3662.67 µg/kg·h | 0.11 ± 0.02 | 0.57 ± 0.39 | 4 ± 1.79 | 3.92 ± 3.33 | 0.08 | – | – | – | – | Stability room temperature ([1]; aCSF QC 320 ng/mL): 93.93±2.94%; Stability Freeze-thaw ([1]; aCSF QC 320 ng/mL): 93.46±8.56%; Stability room temperature ([1]; aCSF QC 640 ng/mL): 99.45±9.62%; Stability Freeze-thaw ([1]; aCSF QC 640 ng/mL): 93.87±4.82%; Stability room temperature ([2]; rat brain QC 1200 ng/mL): 89.46±3.10%; Stability Freeze-thaw ([2]; rat brain QC 1200 ng/mL): 91.69±3.42%; Stability room temperature ([2]; rat brain QC 2400 ng/mL): 91.21±6.60%; Stability Freeze-thaw ([2]; rat brain QC 2400 ng/mL): 87.85±9.09%; plasma Cmax [5]: 2240.32 ± 1031.92 ng/mL
O=c1ccc2c(O)c3ccoc3cc2o1 [bergaptol] | – | – | – | – | – | – | – | – | – | – | – | – | – | – | – | – | – | – | – | – | MRM response in CSF [3]: under LLOQ; MRM response in brain ([4]; rat brain after oral APRE): under LLOQ
C/C=C(/C)C(=O)OC(C)(C)[C@@H]1Cc2c(ccc3ccc(=O)oc23)O1 [Compound 7, columbianadin] | – | – | – | – | – | – | – | – | – | – | – | – | – | – | – | – | 92.73±3.53 | 94.79±6.28 | 91.16±4.37 | 90.93±4.84 | Stability room temperature ([2]; rat brain QC 10 ng/mL): 96.82±4.84%; Stability Freeze-thaw ([2]; rat brain QC 10 ng/mL): 101.64±6.63%; MRM response in CSF [3]: under LLOQ; time after oral administration within which detected in brain ([4]; rat brain after oral APRE, MRM response under LLOQ at following time points): ≤ 4 h
O=c1ccc2cc3ccoc3cc2o1 [Compound 1, psoralen] | – | – | – | – | 0.0513 ± 0.0175 | 0.0204 ± 0.00616 | 4.49 ± 1.05 | 4.67 ± 1.63 | 3.52 ± 2.04 | 351.63 ± 65.06 µg·h/kg | 371.95 ± 69.76 µg·h/kg | 2.88 ± 0.58 | 8.86 ± 3.08 | 0.33 ± 0.13 | 2.15 ± 0.67 | 0.56 | 99.53±12.87 | 96.22±7.77 | 96.99±3.28 | 96.30±8.22 | Stability room temperature ([1]; aCSF QC 10 ng/mL): 97.19±5.40%; Stability Freeze-thaw ([1]; aCSF QC 10 ng/mL): 96.14±6.21%; Stability room temperature ([1]; aCSF QC 40 ng/mL): 98.36±3.57%; Stability Freeze-thaw ([1]; aCSF QC 40 ng/mL): 96.98±5.79%; Stability room temperature ([1]; aCSF QC 80 ng/mL): 94.12±6.94%; Stability Freeze-thaw ([1]; aCSF QC 80 ng/mL): 86.27±13.45%; Stability room temperature ([2]; rat brain QC 10 ng/mL): 101.36±7.46%; Stability Freeze-thaw ([2]; rat brain QC 10 ng/mL): 97.11±8.58%; total amount percentage of CSF/plasma [3]: greater than 1%
CC(C)(O)[C@H](O)COc1c2ccoc2cc2oc(=O)ccc12 [Compound 8, oxypeucedanin hydrate] | 96.96±3.22 | 97.57±5.59 | 97.72±9.35 | 96.57±11.87 | 0.0736 ± 0.0118 | 0.054 ± 0.0082 | 7.47 ± 1.69 | 2 ± 1.14 | 6.32 ± 1.95 | 313.39 ± 59.25 µg·h/kg | 397.36 ± 66.83 µg·h/kg | 2.04 ± 0.34 | 14.45 ± 3.95 | 0.96 ± 0.86 | 4.91 ± 0.91 | – | 96.02±6.30 | 94.94±10.27 | 97.99±6.44 | 102.42±7.10 | Stability room temperature ([1]; aCSF QC 40 ng/mL): 95.09±3.26%; Stability Freeze-thaw ([1]; aCSF QC 40 ng/mL): 94.73±7.34%; Stability room temperature ([1]; aCSF QC 80 ng/mL): 103.37±5.33%; Stability Freeze-thaw ([1]; aCSF QC 80 ng/mL): 95.96±5.37%; log BBexpt. [4]: −0.16
O=c1ccc2ccc(O)cc2o1 [umbelliferone] | – | – | – | – | – | – | – | – | – | – | – | – | – | – | – | – | – | – | – | – | MRM response in CSF [3]: under LLOQ; MRM response in brain ([4]; rat brain after oral APRE): under LLOQ
